Results as given in BindingDB's records for doi:10.1021/jm400568p (University of Manchester, 2013).
pIC50: −log10 of the molar value.

Target: DNA-(apurinic or apyrimidinic site) endonuclease (Homo sapiens, UniProt P27695)
Experiment: Inhibition of APE-1 (unknown origin) using double-stranded AP-site containing DNA as substrate after 30 mins by fluorescence assay

Sequence of DNA-(apurinic or apyrimidinic site) endonuclease (P27695 whole entry): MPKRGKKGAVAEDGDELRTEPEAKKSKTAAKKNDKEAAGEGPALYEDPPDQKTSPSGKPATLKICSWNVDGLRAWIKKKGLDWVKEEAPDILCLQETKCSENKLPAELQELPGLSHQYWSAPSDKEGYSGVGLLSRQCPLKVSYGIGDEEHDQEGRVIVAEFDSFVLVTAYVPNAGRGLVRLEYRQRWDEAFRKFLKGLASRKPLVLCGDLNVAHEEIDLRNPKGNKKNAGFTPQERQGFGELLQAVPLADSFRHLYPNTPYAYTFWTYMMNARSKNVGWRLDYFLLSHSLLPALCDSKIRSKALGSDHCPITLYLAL

- pIC50: < 3.70
Structure (SMILES): Cn1nc(-c2ccccc2)c(O)c2c(=O)[nH]c(=N)nc1-2
